{"source": "ChEMBL document CHEMBL5036361", "about": "“Structurally Diverse Sesquiterpenoid Glycoside Esters from Pittosporum qinlingense with Anti-neuroinflammatory Activity” (J Nat Prod, 2022)", "key": {"[1]": {"system": "BV-2", "test": "Cytotoxicity against mouse BV-2 cells at 6.25 to 100 uM after 24 hrs by MTT assay", "assay_type": "cell-based", "conditions": "bv-2, 24 h, dose 6.25-100 µM"}, "[2]": {"system": "BV-2", "test": "Antineuroinflammatory activity against mouse BV-2 cells assessed as inhibition of LPS-induced NO production incubated for 24 hrs by Griess assay", "assay_type": "functional, cell-based", "conditions": "BV-2, 24 h"}, "[3]": {"system": "BV-2", "test": "Downregulation of LPS-induced COX-2 expression in mouse BV-2 cells at 1.25 to 10 uM preincubated for 1 hr followed by LPS stimulation for 24 hrs by western blot analysis", "assay_type": "functional, cell-based", "conditions": "dose 1.25-10 µM"}, "[4]": {"system": "BV-2", "test": "Downregulation of LPS-induced iNOS expression in mouse BV-2 cells at 1.25 to 10 uM preincubated for 1 hr followed by LPS stimulation for 24 hrs by western blot analysis", "assay_type": "functional, cell-based", "conditions": "dose 1.25-10 µM"}}, "note": "Active and inactive are the calls of the source. No cut-off for these calls is given here."}
{"smiles": "C/C=C(/C)C(=O)O[C@@H]1[C@@H](OC(C)=O)[C@H](O[C@]2(C)CC[C@@H]3[C@H]([C@@H]4[C@H](C)CC[C@@H]42)C3(C)C)OC[C@H]1O", "values": [{"measurement": "Activity", "setting": "[1]", "value": "Non-Toxic"}, {"measurement": "IC50", "setting": "[2]", "value": 24.1, "unit": "µM"}]}
{"smiles": "C=C1CC[C@@H](O)[C@]2(C)CC[C@@H](C(C)(C)O[C@@H]3O[C@H](C)[C@H](O)[C@H](OC(=O)/C(C)=C/C)[C@H]3OC(C)=O)[C@H](OC)[C@@H]12", "values": [{"measurement": "Activity", "setting": "[1]", "value": "Non-Toxic"}, {"measurement": "IC50", "setting": "[2]", "value": "> 50", "unit": "µM"}]}
{"smiles": "C=C1C[C@H](O[C@@H]2O[C@H](C)[C@H](O)[C@H](O)[C@H]2OC(C)=O)[C@H]2[C@@H]([C@H]3[C@@H]1CC[C@]3(C)O)C2(C)C", "values": [{"measurement": "Activity", "setting": "[1]", "value": "Non-Toxic"}, {"measurement": "IC50", "setting": "[2]", "value": "> 50", "unit": "µM"}]}
{"smiles": "C[C@@H]1CC[C@H]2[C@@H]1[C@H]1[C@@H](CC[C@@]2(C)O[C@@H]2O[C@H](C)[C@H](O)[C@H](O)[C@H]2O)C1(C)C", "values": [{"measurement": "Activity", "setting": "[1]", "value": "Non-Toxic"}, {"measurement": "IC50", "setting": "[2]", "value": "> 50", "unit": "µM"}]}
{"smiles": "C/C=C(/C)C(=O)O[C@H]1[C@@H](OC(C)=O)[C@@H](C)O[C@@H](O[C@]2(C)CC[C@@H]3[C@H]([C@@H]4[C@H](C)CC[C@@H]42)C3(C)C)[C@@H]1OC(C)=O", "values": [{"measurement": "Activity", "setting": "[3]", "value": "Active"}, {"measurement": "Activity", "setting": "[1]", "value": "Non-Toxic"}, {"measurement": "Activity", "setting": "[4]", "value": "inactive"}, {"measurement": "IC50", "setting": "[2]", "value": 0.97, "unit": "µM"}]}
{"smiles": "C/C=C(\\C)C(=O)O[C@H]1[C@@H](O)[C@@H](C)O[C@@H](O[C@H]2C[C@@](C)(O)[C@H]3CC[C@](C)(O)[C@H]3[C@H]3[C@@H]2C3(C)C)[C@@H]1OC(C)=O", "values": [{"measurement": "Activity", "setting": "[1]", "value": "Non-Toxic"}, {"measurement": "IC50", "setting": "[2]", "value": "> 50", "unit": "µM"}]}
{"smiles": "CC(=O)O[C@H]1[C@H](O[C@@]2(C)CC[C@@H]3[C@H]([C@@H]4[C@H](C)CC[C@@H]42)C3(C)C)O[C@H](C)[C@H](O)[C@@H]1OC(=O)C=C(C)C", "values": [{"measurement": "Activity", "setting": "[3]", "value": "Active"}, {"measurement": "Activity", "setting": "[1]", "value": "Non-Toxic"}, {"measurement": "Activity", "setting": "[4]", "value": "Active"}, {"measurement": "IC50", "setting": "[2]", "value": 4.95, "unit": "µM"}]}
{"smiles": "C/C=C(/C)C(=O)O[C@H]1[C@H](O)[C@@H](OC(C)=O)[C@H](O[C@]2(C)CC[C@@H]3[C@H]([C@@H]4[C@H](C)CC[C@@H]42)C3(C)C)O[C@@H]1CO", "values": [{"measurement": "Activity", "setting": "[1]", "value": "Non-Toxic"}, {"measurement": "IC50", "setting": "[2]", "value": 21.5, "unit": "µM"}]}
{"smiles": "C=C1C[C@H](O[C@@H]2O[C@H](C)[C@H](O)[C@H](OC(=O)/C(C)=C/C)[C@H]2OC(C)=O)[C@H]2[C@@H]([C@H]3[C@@H]1CC[C@]3(C)O)C2(C)C", "values": [{"measurement": "Activity", "setting": "[1]", "value": "Non-Toxic"}, {"measurement": "IC50", "setting": "[2]", "value": "> 50", "unit": "µM"}]}
{"smiles": "O=c1c(O)c(-c2ccc(O)c(O)c2)oc2cc(O)cc(O)c12", "note": "[QUERCETIN]", "values": [{"measurement": "IC50", "setting": "[2]", "value": 2.45, "unit": "µM"}]}
{"smiles": "CC(=O)O[C@H]1[C@H](O[C@]2(C)CC[C@@H]3[C@H]([C@@H]4[C@H](C)CC[C@@H]42)C3(C)C)O[C@H](CO)[C@@H](O)[C@@H]1O", "values": [{"measurement": "Activity", "setting": "[1]", "value": "Non-Toxic"}, {"measurement": "IC50", "setting": "[2]", "value": "> 50", "unit": "µM"}]}
{"smiles": "CC1(C)[C@H]2[C@H]3[C@@H](CC[C@@]3(C)O)[C@](C)(O)CC[C@H]21", "values": [{"measurement": "Activity", "setting": "[1]", "value": "Non-Toxic"}, {"measurement": "IC50", "setting": "[2]", "value": "> 50", "unit": "µM"}]}
{"smiles": "CCC(C)C(=O)O[C@H]1[C@@H](O)[C@@H](C)O[C@@H](O[C@]2(C)CC[C@@H]3[C@H]([C@@H]4[C@H](C)CC[C@@H]42)C3(C)C)[C@@H]1OC(C)=O", "note": "(some centres not stated)", "values": [{"measurement": "Activity", "setting": "[1]", "value": "Non-Toxic"}, {"measurement": "IC50", "setting": "[2]", "value": "> 50", "unit": "µM"}]}
{"smiles": "CC(C)[C@@H]1CC[C@@]2(C)[C@H](O)CC[C@](C)(O)[C@@H]2[C@H]1O", "values": [{"measurement": "Activity", "setting": "[1]", "value": "Non-Toxic"}, {"measurement": "IC50", "setting": "[2]", "value": "> 50", "unit": "µM"}]}
{"smiles": "C=C1C[C@@H](O[C@@H]2O[C@H](C)[C@H](O)[C@H](OC(=O)/C(C)=C/C)[C@H]2OC(C)=O)[C@@H](C(C)C)[C@@H]2C=C(C)CC[C@@H]12", "values": [{"measurement": "Activity", "setting": "[1]", "value": "Non-Toxic"}, {"measurement": "IC50", "setting": "[2]", "value": "> 50", "unit": "µM"}]}
{"smiles": "C/C=C(/C)C(=O)O[C@H]1[C@H](O)[C@@H](CO)O[C@@H](O[C@]2(C)CC[C@@H]3[C@H]([C@@H]4[C@H](C)CC[C@@H]42)C3(C)C)[C@@H]1OC(C)=O", "values": [{"measurement": "Activity", "setting": "[3]", "value": "Active"}, {"measurement": "Activity", "setting": "[1]", "value": "Non-Toxic"}, {"measurement": "Activity", "setting": "[4]", "value": "Active"}, {"measurement": "IC50", "setting": "[2]", "value": 6.27, "unit": "µM"}]}
{"smiles": "C/C=C(/C)C(=O)O[C@H]1[C@@H](O)[C@@H](C)O[C@@H](O[C@]2(C)CC[C@@H]3[C@H]([C@@H]4[C@H](C)CC[C@@H]42)C3(C)C)[C@@H]1OC(C)=O", "values": [{"measurement": "Activity", "setting": "[1]", "value": "Non-Toxic"}, {"measurement": "IC50", "setting": "[2]", "value": 1.43, "unit": "µM"}]}
{"smiles": "C[C@@H]1CC[C@H]2[C@@H]1[C@H]1[C@@H](CC[C@@]2(C)O)C1(C)C", "values": [{"measurement": "Activity", "setting": "[1]", "value": "Non-Toxic"}, {"measurement": "IC50", "setting": "[2]", "value": "> 50", "unit": "µM"}]}
{"smiles": "CC(=O)O[C@H]1[C@H](O[C@]2(C)CC[C@@H]3[C@H]([C@@H]4[C@H](C)CC[C@@H]42)C3(C)C)O[C@H](C)[C@H](O)[C@@H]1OC(=O)/C=C(/C)CO", "values": [{"measurement": "Activity", "setting": "[1]", "value": "Non-Toxic"}, {"measurement": "IC50", "setting": "[2]", "value": 17.6, "unit": "µM"}]}
{"smiles": "CC(=O)O[C@@H]1[C@H](OC(=O)C=C(C)C)[C@@H](OC(C)=O)[C@H](O[C@@]2(C)CC[C@@H]3[C@H]([C@@H]4[C@H](C)CC[C@@H]42)C3(C)C)O[C@@H]1C", "values": [{"measurement": "Activity", "setting": "[3]", "value": "Active"}, {"measurement": "Activity", "setting": "[1]", "value": "Non-Toxic"}, {"measurement": "Activity", "setting": "[4]", "value": "Active"}, {"measurement": "IC50", "setting": "[2]", "value": 0.95, "unit": "µM"}]}
